From patent US20130005760A1, “HETEROCYCLIC COMPOUND HAVING AZOLE GROUP” (Toyama Chemical Co., Ltd., priority 2010, published 2013)

Tests used:
[1] = system: HIV-1 (JRCSF); assay: Anti-HIV activity (Test Example 1-2): infected MaRBLE cells seeded on plate containing drug solution, luciferase readout after 7 days; format: cell-based; settings: Human immunodeficiency virus 1, 168 h, MaRBLE cells infected with HIV-1 (JRCSF), 7 days culture, firefly luciferase, FORECAST linear regression (Excel)
Experimental: This example was carried out by reference to Journal of Clinical Microbiology, 2007, Vol. 45, pages 477 to 487.
An anti-HIV activity was evaluated using MaRBLE cells obtained by transfection of HPB-M(a) derived from human T-lymphocytes with a luciferase gene of which expressions were regulated by HIV-1 LTR and a CCR5 gene etc.
A plate containing a drug solution was made by dispensing a fresh culture medium or an appropriately diluted test compound to a 96-well plate.
MaRBLE cells were suspended in RPMI1640 containing 10% FCS (fetal calf serum) and penicillin/streptomycin. After infected with HIV-1 (JRCSF), the cells were seeded on the above-described plate containing a drug solution ([…] cells/well). As a control group, the same number of uninfected cells were seeded.
After culturing at 37° C. under 5% CO2 for 7 days, an intracellular luciferase activity was measured using Dual-Glo Luciferase assay system (Promega).
The virus growth rate was calculated by the following equation.
Virus growth rate (%)=(A/B)×100
A=(Firefly luciferase activity in the well with the compound)−(Firefly luciferase activity of uninfected cells)
B=(Firefly luciferase activity in the well without the compound)−(Firefly luciferase activity of uninfected cells)
The IC50 of the compound was calculated by plotting the concentration with the logarithm and by plotting the virus growth rate with a real number, using the FORECAST function (linear regression technique) of Microsoft Office Excel 2003.

[2] = Single-dose oral toxicity study in mice; format: in vivo; settings: male ICR mice, suspension in 0.5% methylcellulose, conditions observed on the next day
Experimental: (§1) The compounds of Examples 2, 4 and 12 were used as test compounds.
10 mL/kg of a test compound suspended in 0.5% methylcellulose was orally administered to male ICR mice (6 week-old, one animal in a group).
On the next day after the administration, the conditions of the mice were observed.

[3] = Pharmacokinetic study in mice (oral administration); format: in vivo; settings: mouse, serum, 25 mg/kg, male ICR mice, suspension in 0.5% methylcellulose 2.5 mg/mL at 10 mL/kg, 12 hours after administration, HPLC, read-out: serum concentration of the test compound
Experimental: The compounds of Examples 2, 4, 5, 12 and 16 were used as test compounds.
A test compound suspended in 0.5% methylcellulose (2.5 mg/mL) was orally administered at 10 mL/kg to male ICR mice (6 week-old, three animals in a group). At 12 hours after the administration, the blood of the mice was collected, and the concentrations of the test compound in the serum were measured by HPLC.

[4] = system: bone marrow polychromatic erythrocytes; assay: In vivo micronucleus study in mice; settings: male ICR mice, oral twice at 24 hour interval, bone marrow 24 hours after final administration, highest dose group with all animals alive
Experimental: as §1
A test compound suspended in 0.5% methylcellulose was orally administered to male ICR mice (8 week-old, three animals in a group) twice at a 24 hour interval. To a control group, 0.5% methylcellulose was orally administered in a similar manner.
At 24 hours after the final administration, the mice in the highest dose group in which all the animals were alive were killed by exsanguination under ether anesthesia, and one thigh bone was collected from each animal. After cutting the collected thigh bone at the proximal end, bone marrow cells were washed out with fetal calf serum to a centrifuge tube using a disposable syringe, and after centrifugation (1000 rpm, 5 minutes, HITACHI 05PR-22), a part of the supernatant was discarded to obtain a suspension of bone marrow cells. This suspension was smeared on a slide glass, and then dried followed by methanol fixation to prepare a sample.
The sample was observed by acridine orange staining.
The sample of which frequency of MNPCE exceeds 0.5% was judged positive.
Frequency of MNPCE (%)=(MNPCE number/Observed PCE number)×100

**Q.** For `Cc1noc(C)c1-c1ccc2c(=O)cc(C)n(-c3cc(N)c(F)c(F)c3F)c2n1` [Example 12, 1-(5-amino-2,3,4-trifluorophenyl)-7-(3,5-dimethylisoxazol-4-yl)-2-methyl-1,4-dihydro-4-oxo-1,8-naphthyridine], which IC50 [1] is on record?
**A.** 1.9 nM

**Q.** And the “dose at which the compound showed good safety (single oral dose)” value [2]?
**A.** 1000 mg/kg

**Q.** And the concentration at 12 h [3]?
**A.** ≥ 500 ng/mL

**Q.** What about the “micronucleus test result (frequency of MNPCE exceeding 0.5% judged positive)” value [4] of the same compound?
**A.** negative
